Data taken from a melting point compilation (Tetko et al.; mined from patent text by program, amines drawn as free bases though some values may be those of a salt).

Row | Structure (SMILES) | melting point [°C]
1 | COC(=O)C1=CCC(NC(C)=O)C1 (stereo not drawn) | 72 to 74
2 | CCC(NC(=O)COc1c(C)cccc1C)C(N)=O (stereo not drawn) | 182 to 184
3 | CCOc1ccc(NC(=O)CC(Cc2cccc3ccccc23)C(=O)O)cc1 (stereo not drawn) | 131 to 135
4 | O=c1ccn(CCOCCO)c(C(O)c2ccccc2)c1OCc1ccccc1 (stereo not drawn) | 157 to 159
5 | COc1cc2c(cc1OC)[C@H]1CCCC[C@H]1N=C2c1ccc(C(C)=NO)cc1 | 189 to 192
6 | O=C(O)C(=O)c1ccc(O)c(Cl)c1 | 116 to 117
7 | C=CCc1cc(C=C2N=C(C)OC2=O)ccc1OC(C)=O | 108 to 109
8 | CCNC(=O)c1cc(C)c(C(c2cc(F)ccc2F)S(=O)(=O)c2ccc(F)cc2)cn1 (stereo not drawn) | 191 to 193
9 | Cn1c(CCCO)nc2ccccc21 | 107
10 | O=C(COc1ccccc1)NC1CNC1=O (stereo not drawn) | 153 to 155
11 | CCc1cc(Cl)cnc1N | 67 to 68
12 | O=C(O)Cc1ccc(OCCNC(=O)C2Cc3ccccc3N2S(=O)(=O)c2ccc(-c3cc(C(F)(F)F)ccc3Cl)cc2)c(F)c1 (stereo not drawn) | 100
13 | N#Cc1ccc2c(c1)Sc1ccccc1C=C2 | 108 to 110
14 | Nc1nc2c(ncn2[C@@H]2CO[C@H](CO)C2)c(=O)[nH]1 | 261 to 263
15 | O=c1[nH]c2cc(F)c(NCC3CCc4ccccc4C3)cc2o1 (stereo not drawn) | 177 to 178
16 | CCOC(=O)CC(C)Sc1nnc(S)s1 (stereo not drawn) | 107 to 108
17 | Nc1ncc(I)c(N)n1 | 212 to 214
18 | CC(C)(O)c1cnn2c(-c3ccc(F)c(-c4ccc(F)cc4C#N)c3)cnc2n1 | 215
19 | O=[N+]([O-])c1ccc2snc(-c3ccccc3)c2c1 | 130
20 | CC(C)(C)OC(=O)N1CCc2c(n(CCOc3ccccc3)c3ccc(Cl)c(Cl)c23)CC1 | 175 to 176
21 | CCCn1nc2c(N)nc3ccccc3c2c1NC | 200 to 201
22 | CC(CC#N)C(C#N)(c1cccc(C(F)(F)F)c1)N1CCOCC1 (stereo not drawn) | 115 to 118
23 | OCc1cn(C(c2ccccc2)(c2ccccc2)c2ccccc2)nn1 | 200 to 201
24 | COc1ccc(CC2NC(=O)NC2=O)cc1OCc1ccccc1 (racemic) | 155 to 157
25 | CCOC(=O)c1cn(-c2c(OCc3ccccc3)cccc2OCc2ccccc2)cn1 | 125 to 126

Row | Structure (SMILES) | melting point [°C]
26 | O=C1c2ccccc2CCC1c1ccccc1 (stereo not drawn) | 69
27 | C#CCN(C(CCn1c(=O)[nH]cc(C(F)(F)F)c1=O)C(=O)NO)S(=O)(=O)c1ccc(Oc2ccccc2)cc1 (stereo not drawn) | 170 to 171
28 | CCOC(=O)Cc1nnnn1C | 64 to 66
29 | CCOC(=O)C(Cc1cccc(OC)c1OCc1ccccc1)(NC(C)=O)C(=O)OCC | 94 to 96
30 | NC(=O)c1ncoc1-c1cccc(O)c1 | 202 to 204
31 | Nc1ncc(CN2CCN(c3ccccc3)CC2)c(N)n1 | 263 to 265
32 | COc1cc2c(cc1OC)-c1cc(=O)[nH]c(=O)n1CC2 | 323 to 325
33 | CCOc1ccc(NC=C(C#N)C(=O)Nc2cc(OC)c(Cl)cc2Cl)cc1Br | > 250
34 | COc1cc2c(cc1O)CCN(Cc1cc(OC)c(OC)c(OC)c1)C2 | 170 to 171
35 | C#CCN1C(=O)COc2cc(F)c(N(C(C)=O)C(=O)C3=C(C(=O)OC)CCCC3)cc21 | 153 to 154
36 | CNC(=O)c1ccc(C=CC(=O)NCC(=O)N(C)c2ccc(C)c(COc3cccc4c3nc(S)n4C)c2C)cc1 | 278 to 292
37 | Cc1c(C#N)oc2c(c1=O)COc1ccccc1-2 | 179 to 181
38 | CC(C)(C)c1cc(OCCCc2nnn[nH]2)cc(C(C)(C)C)c1O | 179 to 180
39 | O=c1c(NCCCBr)c(OC2CCCCC2)c1=O | 68 to 70
40 | CCCc1[nH]c2cc(C(=O)OC)ccc2c1C(=O)C=C(C)C | 146 to 147
41 | C/C(=C(\C#N)C(=S)/N=C/N(C)C)N1CCC(c2ccccc2)CC1 | 151 to 152
42 | Cc1cc([N+](=O)[O-])c(NC(C)C)c([N+](=O)[O-])c1NC(C)C | 96 to 97
43 | CCCNc1nc(-c2ccccc2)c(-c2ccc(=O)n(C(C)C)n2)s1 | 165 to 166
44 | CNCc1ccc2c(c1)C(Cc1ccnc(F)c1)(Cc1ccnc(F)c1)c1ccccc1-2 | 130 to 134
45 | O=C(Nc1cccc(C(F)(F)F)c1)c1cccnc1NCc1ccncc1 | 152 to 153
46 | O=C(O)COc1ccc2c(c1)-c1nc(SCC(c3ccccc3)c3ccccc3)sc1CC2 | 165 to 167
47 | Cc1c(C)n(CC(F)F)c2c(OCc3ccccc3)nncc12 | 128 to 131
48 | O=C1Nc2cc(F)ccc2Oc2ccccc21 | 228 to 229
49 | COc1ccc(Cl)cc1C(=O)CCC(=O)O | 113 to 115
50 | Cc1cc(Oc2ccc([N+](=O)[O-])c(F)c2)n[nH]1 | 80 to 83

Row | Structure (SMILES) | melting point [°C]
51 | CC(C)(C)Oc1ccc(C(=O)N[C@H]2CC[C@H](CCN3CCC(c4cccc5c4CCO5)CC3)CC2)cc1 | 216
52 | O=Cc1cc(-c2ccccc2)nn1Cc1ccc(Cl)cc1Cl | 135 to 137
53 | CCOC(=O)c1ccc2c(c1)CC(CO)O2 (stereo not drawn) | 72 to 77
54 | COc1c(Cl)cc2c(=O)[nH]c(=O)[nH]c2c1OC | 272 to 273
55 | COc1cc(OC)nc(C(C(=O)O)C(C)C)n1 (stereo not drawn) | 99 to 101
56 | O=C(c1ccccc1)c1ccc2c([N+](=O)[O-])c(O)c(O)cc2c1 | 196 to 205
57 | O=C(O)c1ccccc1Oc1ccc2c(c1)CC[C@H](CNC[C@H](O)COc1ccccc1)O2 | 188
58 | Cc1cc(C)nc(NC(=O)C(N)Cc2ccccc2)c1 (stereo not drawn) | 97
59 | O=c1c2c(Cc3ccccc3)n[nH]c2c2cccnc2n1-c1cccc(OC(F)(F)F)c1 | 249 to 251
60 | CC(C)c1cc(C(C)C)c(CC(=O)NS(=O)(=O)Oc2c(C(C)C)cc(S(N)(=O)=O)cc2C(C)C)c(C(C)C)c1 | 164 to 166
61 | COCCNC(=O)c1cccc(-c2cccc3cc(C(O)c4cccc(C(F)(F)F)c4)sc23)c1 (stereo not drawn) | 126 to 127
62 | COc1ccc(C(Cl)=CC(=O)C(F)(F)C(F)(F)F)cc1OC | 67
63 | O=C(O)CC1=CSCSC1 | 97
64 | COc1cc2c(cc1OC)C(=Cc1cc(O)ccc1[N+](=O)[O-])OC2=O | 253
65 | CN(Cc1cc(C(F)(F)F)cc(C(F)(F)F)c1)C(=O)c1nc(NCc2ccccc2)ncc1-c1ccccc1 | 128 to 130
66 | Cc1ccc2cc(NC(=O)c3cccc(SCc4cnccn4)c3)ccc2n1 | 102 to 105
67 | Cc1ccc(S(=O)(=O)NC(=O)OCCc2ccc(-n3c(CCC(=O)c4cccnc4)nc4cc(C(F)(F)F)c(Cl)cc43)cc2)cc1 | 89 to 95
68 | COc1ccc2c(c1)c(C1CCN(CCOc3ccccc3C(=O)O)CC1)cn2Cc1cccs1 | 150 to 151
69 | CCOC(=O)C(=CNC1CC1)C(=O)c1cc(F)c(F)c(Br)c1F | 74 to 76
70 | C=CC[N+]([O-])(CCCCCCCCCCCCCCCCCC)CCCCCCCCCCCCCCCCCC | 59 to 64
71 | S=C1Nc2ccccc2N2CCN(Cc3ccccc3)CCN12 | 125 to 127
72 | COc1cc(C(=O)Oc2ccccc2C(C)=O)cc([N+](=O)[O-])c1OC | 108 to 109
73 | C#CCC(O)(c1cncnc1)C(C)(C)C (stereo not drawn) | 174 to 176
